# Data taken from US12319967B2, “Methods and compositions for diagnosing and treating prostate cancer based on long noncoding RNA overlapping the LCK gene that regulates prostate cancer cell growth” (University of Virginia Patent Foundation, priority 2019, dated 2025).
# “Also recorded” adds a separate entry of the source. Where a SMILES comes first, the peptide text is derived from it. The star is where a group is joined. Cbz = O=C(OCc1ccccc1)*
# How the values were obtained:
# Format in all cases: cell-based, human
# [1] = tested on: PSA and TMPRSS2 transcripts; assay: qPCR of PSA and TMPRSS2 transcripts to verify efficacy of p300 inhibition; details: 0.3 μM A-485 + 1 nM R1881
# Method: FIGS. 2A through 2E illustrate that HULLK is an AR-regulated lncRNA. […] LNCaP and C42 cells were transduced with two independent shRNAs to LCK and treated with 0-1 nM R1881. RNA was collected on Day 4 and LCK transcript levels were determined using LCK primers targeting the 3′UTR. […] LNCaP and C42 cells were seeded for 48 hrs, and then, treated with 1 nM R1881 in the presence or absence of 10 μM enzalutamide. RNA was collected 24 hrs after treatment and LCK transcript levels were determined by qPCR using LCK primers targeting the 3′UTR. C4-2, DU145, and PC3 cells were seeded in CSS media for 48 hrs, and then, treated with 1 nM R1881 for 16 hrs. RNA was collected and LCK transcript levels were determined using LCK primers targeting the 3′UTR. […] FIG. 2E illustrates that Brd4 inhibition reduces the hormone induction of HULLK, n=3. LNCaP, C42, or Jurkat cells were seeded for 48 hrs in the appropriate growth media, and then, treated with 1 nM R1881 in the presence or absence of 0.3 μM A-485 or 0.1 μM JQ1. RNA was collected 24 hrs after treatment and LCK transcript levels were determined by qPCR using LCK primers targeting exon 13 or 3′UTR. PSA and TMPRSS2 transcripts were determined to verify the efficacy of p300 and Brd4 inhibition. […]
# HULLK = assay: qPCR of HULLK (LCK 3'UTR / exon 13) transcript levels in response to hormone and AR, p300 or Brd4 inhibition
# Method: FIGS. 2A through 2E illustrate that HULLK is an AR-regulated lncRNA. […] LNCaP and C42 cells were transduced with two independent shRNAs to LCK and treated with 0-1 nM R1881. RNA was collected on Day 4 and LCK transcript levels were determined using LCK primers targeting the 3′UTR. […] LNCaP and C42 cells were seeded for 48 hrs, and then, treated with 1 nM R1881 in the presence or absence of 10 μM enzalutamide. RNA was collected 24 hrs after treatment and LCK transcript levels were determined by qPCR using LCK primers targeting the 3′UTR. C4-2, DU145, and PC3 cells were seeded in CSS media for 48 hrs, and then, treated with 1 nM R1881 for 16 hrs. RNA was collected and LCK transcript levels were determined using LCK primers targeting the 3′UTR. […] FIG. 2E illustrates that Brd4 inhibition reduces the hormone induction of HULLK, n=3. LNCaP, C42, or Jurkat cells were seeded for 48 hrs in the appropriate growth media, and then, treated with 1 nM R1881 in the presence or absence of 0.3 μM A-485 or 0.1 μM JQ1. RNA was collected 24 hrs after treatment and LCK transcript levels were determined by qPCR using LCK primers targeting exon 13 or 3′UTR. PSA and TMPRSS2 transcripts were determined to verify the efficacy of p300 and Brd4 inhibition.
# FIGS. 7A and 7B illustrate the regulation of HULLK by the AR in breast cancer cells. […] LNCaP, MCF7, BT549, and MDA-MD-231 cells were seeded in the appropriate growth media, and whole cell lysates were collected 48 hrs later and blotted for AR21 and ERK1/2. […] MCF7, BT549, and MDA-MB-231 cells were seeded in CSS media for 48 hrs, and then, treated with 1 nM R1881 for 16 hrs. RNA was collected and LCK transcript levels were determined using LCK primers targeting the 3′UTR, n=3.
# Cell Culture and Reagents. LNCaP and C4-2 cells (a gift from Dr. L. W. K. Chung) were grown in DMEM:F12 (Invitrogen) with 5% Non-Heat-Inactivated serum (Gemini) and 1% Insulin-Transferrin-Selenium-Ethanolamine (ThermoFisher). CWR22Rv1 (Rv1), VCaP, PC3 (gifts from Drs. Steven Balk, Karen Knudsen, and Chung, respectively), WMPY-1 (ATCC), MCF7, BT549 and MDA-MB-231 (gifts from Dr. Amy Bouton) were grown in DMEM (Invitrogen) with 10% Heat-Inactivated serum. DU145 (a gift from Dr. Chung), PANC1 (a gift from Dr. J. Thomas Parsons), HeLa and Jurkat cells (gifts from Dr. Tim Bender) were grown in RPMI-1640 (Invitrogen) with 10% Heat-Inactivated serum. LHS cells (a gift from Dr. William Hahn) were grown in ProstaLife Epithelial Cell Medium (Lifeline). RWPE-1 (ATCC) cells were grown in Keratinocyte-Serum-Free Media (Invitrogen). For growth and RNA experiments, phenol-red free DMEM:F12 media with 5% Charcoal-Stripped Serum (CSS) (Gemini) was used.
# RNA Isolation, qPCR and ddPCR: RNA was collected using TRIzol and quantitated using a NanoDrop 2000 UV-Vis Spectrophotometer (ThermoFisher). cDNA was synthesized using Superscript IV VILO cDNA synthesis kit (Invitrogen). Quantitative real-time PCR (qPCR) was performed as previously described (17,18). Droplet digital PCR (ddPCR) was executed according to the manufacturer's protocol (Bio-Rad).
# To assess whether this lncRNA is modulated by hormone, transcript levels of this lncRNA were quantified by qPCR using 3′UTR primers in LNCaP and C4-2 cells transduced in the presence of increasing concentrations of R1881 (FIG. 2A). […] This increase was inhibited in the presence of two independent LCK shRNAs in both cell lines.
# This hormone regulation was confirmed by measuring transcript amounts in LNCaP and C4-2 cells treated with vehicle or R1881 in the presence or absence of the anti-androgen enzalutamide (FIG. 2B). As expected, there was an 8-fold and 12-fold R1881-induced increase in LCK 3′UTR transcript levels in LNCaP and C4-2 cells, respectively. […] Androgen deprivation influenced message levels negligibly in LNCaP cells, but decreased transcript amounts of this lncRNA by approximately 2.9-fold in C4-2 cells (FIG. 2B, C4-2 vehicle vs. media). […]
# LCK protein = assay: Western blot for LCK protein after proteasome inhibition with MG132; details: LNCaP cells treated with FBS, CSS, or 1 nM R1881; 10 μM MG132; any timepoint
# Method: (§1) FIGS. 1A to 1D illustrate the discovery of a novel lncRNA in prostate cancer cells. […] LCK protein was immunoprecipitated from 1 mg cell lysate from LNCaP, C4-2, and Jurkat cells cultured in the appropriate growth media for 48 hrs and treated with 1 nM R1881 or starved of hormone for 24 hrs, separated by 10% SDS-PAGE, and immunoblotted with LCK antibodies targeting the amino- and carboxy-terminals. Representative blots are shown, n=3. […] LNCaP cells were seeded and treated with 10 μM MG132 in the presence or absence of R1881 for the indicated timepoints. Cell lysates were blotted for LCK (c-terminal), LCK (n-terminal), p53, ERK1/2, Ran, and Histone H3. Representative blots are shown, n=3. Representative gel is shown, n=3. LNCaP cells were grown in the absence or presence of 1 nM R1881 for 24 hrs. RNA was collected using the Qiagen RNeasy kit. […]
# (§2) To determine whether the lack of LCK expression was due to proteasomal degradation, LCK protein levels were examined in the presence of the proteasome inhibitor MG132 (FIG. 18). […] Furthermore, no truncated forms of LCK were detected when the whole western blot membrane was probed from 75 kD to 10 kD with either c- or n-terminal LCK antibodies. […] Therefore, a ncRNA may play a role in the growth effects measured in the kinome screen.
# p53 = assay: Western blot after proteasome inhibition with MG132; details: LNCaP cells; 10 μM MG132
# Method: as §1, §2
# [2] = tested on: LNCaP, C4-2, and Rv1 cells; assay: CyQuant growth assay 7 days after viral transduction; details: day 7; for effect on cell growth: absence of hormone, Rv1 cells
# Description: FIG. 5A illustrates the gene structure of LCK and location of each shRNA targeting LCK. MISSION shRNAs targeting human LCK (NM_005356) and the pLKO vector control were purchased from ThermoFisher. Each shRNA was validated for efficiency of LCK or HULLK knockdown in Jurkat and PCa cells by qPCR. (C) The results of CyQuant Assay measuring DNA content as a surrogate for cell number 7 days after shRNA transduction is shown in FIG. 5C. Growth was compared to untreated empty vector control and the values were averaged across biological replicates. Error bars represent standard error of the mean. The relative effect of four independent shRNAs on cell growth in LNCaP, C42, and Rv1 cells in the absence or presence of 0.05 nM R1881, n=3. FIG. 5D plots the data for the relative effect of HULLK overexpression on cell growth in LNCaP, C42, and Rv1 cells in the absence or presence of 0.05 nM R1881, n=3. Statistical analysis was performed using ANOVA and Tukey test.
# CyQuant Growth Assays: Assay was performed as previously described (18). Briefly, shRNA or pLKO control virus was added to 1 μg/ml fibronectin-coated 96 well plates. Cells were plated in RPMI-1640 plus 5% CSS with vehicle, 0-0.05 nM R1881, and/or 10 μM Enzalutamide (Selleck Chemicals). Quantification was performed on Day 7 using a BioTek Synergy 2 plate reader.
# To explore the functional role of HULLK in PCa, the effects of HULLK knockdown on PCa cell growth was examined. LNCaP, C4-2, and Rv1 cells were transduced with lentiviral particles expressing four independent shRNAs specific for LCK or pLKO empty vector control in the presence or absence of 0.05 nM R1881. Two shRNAs were targeting the carboxy-terminal of LCK (shLCK-3 and shLCK-4) and should decrease HULLK levels; and two shRNAs were directed toward the amino-terminal (shLCK-1 and shLCK-2) and should not affect HULLK expression (FIG. 5A). […] As a control, all four shRNAs efficiently knocked LCK down 60-90% in Jurkat cells. Seven days following viral transduction, cellular growth was measured using CyQuant, which uses DNA content as a surrogate for cell number. In the absence of hormone, the four shRNAs had no dramatic effects on growth in LNCaP or C4-2 cells (FIG. 5C).
# The complement experiment of evaluating the effects of overexpressing HULLK on cell growth was also performed. LNCaP, C4-2, and Rv1 cells were transduced with lentivirus expressing either vector or HULLK constructs in the presence or absence of 0.05 nM R1881, and proliferation was calculated seven days following viral transduction.
# AR = AR protein and message levels 48 hrs after HULLK knockdown or overexpression; details: LNCaP and C4-2 cells; 48 hrs after transduction
# Method: LNCaP and C4-2 cells were transduced with vector, shLCK (n-term), or shLCK (c-term) in the appropriate growth media, and whole cell lysates were collected 48 hrs later and blotted for AR21 and ERK1/2, n=3. […] LNCaP and C4-2 cells were transduced with vector or HULLK in the appropriate growth media, and whole cell lysates were collected 48 hrs later and blotted for AR21 and α-tubulin, n=3. RNA was collected and AR transcript levels were determined using AR primers targeting the DNA binding domain, n=3.
# Conversely, studies were conducted to determine whether HULLK modulates AR expression. LNCaP and C4-2 cells were transduced with vector, HULLK, or shRNAs targeting LCK (n-term) (FL-LCK) or LCK (c-term) (HULLK), and AR protein and message levels were examined 48 hrs after transduction.
compound,measurement,setting,value
CNC(=O)Nc1ccc2c(c1)CC[C@@]21OC(=O)N(CC(=O)N(Cc2ccc(F)cc2)[C@@H](C)C(F)(F)F)C1=O [A-485],PSA and TMPRSS2 message in the presence of hormone and p300 inhibitor,[1],sufficiently blocking its target
same,effect on hormone-induced increase in HULLK transcript levels,"HULLK; 0.3 μM A-485 + 1 nM R1881, 24 hrs",significantly opposed the hormone-induced increase
same,"effect on HULLK expression, inhibitor alone","HULLK; 0.3 μM A-485 without R1881, LNCaP, C4-2, Jurkat cells",negligible effects
CNC(=O)c1ccc(N2C(=S)N(c3ccc(C#N)c(C(F)(F)F)c3)C(=O)C2(C)C)cc1F [Enzalutamide],effect on hormone-mediated increase in LCK 3'UTR transcript (HULLK),"HULLK; LNCaP and C4-2 cells, 1 nM R1881 + 10 μM enzalutamide, 24 hrs",blocked the hormone-mediated increase; also recorded: blocks the androgen-induced expression of HULLK
Cc1sc2c(c1C)C(c1ccc(Cl)cc1)=N[C@@H](CC(=O)OC(C)(C)C)c1nnc(C)n1-2 [JQ1],HULLK expression in the presence of hormone and JQ1 compared to hormone alone,"HULLK; 0.1 μM JQ1 + 1 nM R1881, 24 hrs",significantly decreased
CC(C)C[C@@H](C=O)NC(=O)[C@H](CC(C)C)NC(=O)[C@H](CC(C)C)NC(=O)OCc1ccccc1 [MG132] (Cbz-Leu-Leu-Leu-aldehyde),LCK protein detection,LCK protein,still not observed
same,p53 protein level,p53,elevated
"HULLK: Hormone Upregulated lncRNA within LCK, overexpressed from lentiviral expression vector PLX301",proliferation of HULLK-overexpressing cells compared to vector control cells,"[2]; 0.05 nM R1881, LNCaP, C4-2, and Rv1 cells",significantly increased proliferation
same,growth of HULLK-overexpressing cells versus vector-expressing cells,"[2]; androgen-deprived media, LNCaP, C4-2, and Rv1 cells",did not provide a growth advantage
same,AR expression after overexpression of HULLK,AR,not notably altered
"shLCK-3: shRNA targeting the carboxy-terminal of LCK (HULLK), nucleotide sequence SEQ ID NO: 25 (CCGGGGGATCCTGCTGACGGAAATTCTCGAGAATTTCCGTCAGCAGGATCCCTTTTTG)",effect on cell growth,[2],statistically significant decrease
"shLCK-4: shRNA targeting the carboxy-terminal of LCK (HULLK), nucleotide sequence SEQ ID NO: 26 (CCGGTCACATGGCCTATGCACATATCTCGAGATATGTGCATAGGCCATGTGATTTTTG)",effect on cell growth,[2],statistically significant decrease
